# Laboratory results taken from ChEMBL document CHEMBL4392856, “Synthesis of diphenoxyadamantane alkylamines with pharmacological interest” (Bioorg Med Chem Lett, 2019).
# Columns and labels:
# [1] = test system: Mycobacterium tuberculosis; assay: Antimycobacterial activity against Mycobacterium tuberculosis H37Rv assessed as inhibition of parasite growth incubated for 6 days by REMA method; format: functional; conditions: 144 h
# L6 = assay: Cytotoxic activity against rat L6 cells assessed as reduction in cell viability incubated for 6 days by Alamar blue assay; format: cell-based; conditions: L6, 144 h
# Trypanosoma brucei = assay: Antitrypanosomal activity against Trypanosoma brucei 427 bloodstream forms assessed as inhibition of parasite growth incubated for 48 hrs by Alamar blue assay; format: functional, organism-based; conditions: Trypanosoma brucei, 427, 48 h
# [2] = test system: Mycobacterium tuberculosis; assay: Antimycobacterial activity against […] assessed as inhibition of parasite growth incubated for 6 days by REMA method; format: functional
# [3] = test system: Mycobacterium tuberculosis; assay: Antimycobacterial activity against Mycobacterium tuberculosis assessed as inhibition of parasite growth at 1 ug/ml incubated for 6 days by REMA method relative to untreated control; format: functional; conditions: 144 h
Structure (SMILES),MIC [1] [µM],IC50 (L6) [nM],IC50 (Trypanosoma brucei) [nM],IC90 (Trypanosoma brucei) [nM],Imax [2] [%],inhibition at 1 µg/mL [3] [%]
OCCN(CCO)CC(O)COc1ccc(C2(c3ccc(OCC(O)CN(CCO)CCO)cc3)C3CC4CC(C3)CC2C4)cc1 (stereo not given),24.3,,,,,
CN(C)CC(O)COc1ccc(C23CC4CC(C2)CC(c2ccc(OCC(O)CN(C)C)cc2)(C4)C3)cc1 (stereo not given),,290,171,235,,
CSc1ccc(OCc2ncc([N+](=O)[O-])n2C)cc1 [FEXINIDAZOLE],,,1000,,,
CN1CCN(CCOc2ccc(C3(c4ccc(OCCN5CCN(C)CC5)cc4)C4CC5CC(C4)CC3C5)cc2)CC1,4.59,330,51,70,100,0.04
CCCCCCNCC(O)COc1ccc(C23CC4CC(C2)CC(c2ccc(OCC(O)CNCCCCCC)cc2)(C4)C3)cc1 (stereo not given),0.084,450,205,272,0,0
CN1CCN(CC(O)COc2ccc(C34CC5CC(C3)CC(c3ccc(OCC(O)CN6CCN(C)CC6)cc3)(C5)C4)cc2)CC1 (stereo not given),20.5,260,176,207,95,5
CN1CCN(CC(O)COc2ccc(C3(c4ccc(OCC(O)CN5CCN(C)CC5)cc4)C4CC5CC(C4)CC3C5)cc2)CC1 (stereo not given),8.5,540,114,138,,
CC[C@@H](CO)NCCN[C@@H](CC)CO [ETHAMBUTOL],0.11,,,,0,0
OC(COc1ccc(C23CC4CC(C2)CC(c2ccc(OCC(O)CN5CCCCC5)cc2)(C4)C3)cc1)CN1CCCCC1 (stereo not given),10.4,270,250,292,99,0.17
CCCCNCC(O)COc1ccc(C23CC4CC(C2)CC(c2ccc(OCC(O)CNCCCC)cc2)(C4)C3)cc1 (stereo not given),4.14,550,93,110,100,50
CO[C@H]1/C=C/O[C@@]2(C)Oc3c(C)c(O)c4c(O)c(c(/C=N/N5CCN(C)CC5)c(O)c4c3C2=O)NC(=O)/C(C)=C\C=C\[C@H](C)[C@H](O)[C@@H](C)[C@@H](O)[C@@H](C)[C@H](OC(C)=O)[C@@H]1C [RIFAMPIN],0.001,,,,54,13
